#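 Briefly, cells in 96-well plates were exposed to five compound concentrations for 48 h, and endpoints were estimated by linear interpolation. GI50 is the concentration that inhibits growth by half.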 Activity calls are given as the source filed them. Cut-off read from the data, not from the text of the source: active = GI50 up to about 1.1 µM and inactive = higher.
# How the values were obtained:
# Test in all cases: NCI anticancer screen, dose series, 48 h
# HCT-15 = test system: HCT-15
# A549 = test system: A549
# LOX IMVI = test system: LOX IMVI
# TK-10 = test system: TK-10
# NCI-H23 = test system: NCI-H23
# CCRF-CEM = test system: CCRF-CEM
# OVCAR-3 = test system: OVCAR-3
# NCI-H226 = test system: NCI-H226
# SK-MEL-2 = test system: SK-MEL-2
# SK-MEL-28 = test system: SK-MEL-28
# UO-31 = test system: UO-31
# U-251 = test system: U-251
# HL-60 = test system: HL-60
# UACC-257 = test system: UACC-257
# K562 = test system: K562
# HOP-62 = test system: HOP-62
# SK-MEL-5 = test system: SK-MEL-5
Compound,GI50 (HCT-15),GI50 (A549),GI50 (LOX IMVI),GI50 (TK-10),GI50 (NCI-H23),GI50 (CCRF-CEM),GI50 (OVCAR-3),GI50 (NCI-H226),GI50 (SK-MEL-2),GI50 (SK-MEL-28),GI50 (UO-31),GI50 (U-251),GI50 (HL-60),GI50 (UACC-257),GI50 (K562),GI50 (HOP-62),GI50 (SK-MEL-5)
O=C1OC(c2ccccc2)=N/C1=C/NC(Cc1c[nH]cn1)C(=O)O (centres undefined),> 100 µM,> 100 µM (inactive),> 100 µM (inactive),> 100 µM (inactive),> 100 µM (inactive),> 100 µM (inactive),> 100 µM (inactive),> 100 µM (inactive),> 100 µM (inactive),> 100 µM (inactive),> 100 µM (inactive),> 100 µM (inactive),> 100 µM (inactive),> 100 µM (inactive),> 100 µM (inactive),> 100 µM (inactive),> 100 µM (inactive)
COC(=O)[C@@]1(C(C)CC(=O)O)CCCCC1=O (some centres undefined),42.6 µM,> 100 µM (inactive),93.8 µM (inactive),> 100 µM (inactive),> 100 µM (inactive),> 100 µM (inactive),> 100 µM (inactive),> 100 µM (inactive),> 100 µM (inactive),> 100 µM (inactive),> 100 µM (inactive),> 100 µM (inactive),> 100 µM (inactive),> 100 µM (inactive),> 100 µM (inactive),> 100 µM (inactive),> 100 µM (inactive)
Cn1c(=O)cc2[nH]c3ccccc3n2c1=O,33.7 µM,> 100 µM (inactive),20.2 µM (inactive),81.7 µM (inactive),> 100 µM (inactive),41.5 µM (inactive),> 100 µM (inactive),55.6 µM (inactive),> 100 µM (inactive),> 100 µM (inactive),93.3 µM (inactive),16.2 µM (inactive),> 100 µM (inactive),> 100 µM (inactive),42.1 µM (inactive),> 100 µM (inactive),> 100 µM (inactive)
COc1ccc2c(c1)c(Cc1c(C)n(C)c3ccc(OC)cc13)c(C)n2C,> 100 µM,> 100 µM (inactive),> 100 µM (inactive),> 100 µM (inactive),> 100 µM (inactive),> 100 µM (inactive),> 100 µM (inactive),> 100 µM (inactive),> 100 µM (inactive),> 100 µM (inactive),> 100 µM (inactive),> 100 µM (inactive),> 100 µM (inactive),> 100 µM (inactive),> 100 µM (inactive),> 100 µM (inactive),> 100 µM (inactive)
O=C1CCC2(c3ccc(F)cc3)Nc3ncccc3N12 (centres undefined),> 100 µM,> 100 µM (inactive),> 100 µM (inactive),> 100 µM (inactive),> 100 µM (inactive),> 100 µM (inactive),> 100 µM (inactive),> 100 µM (inactive),> 100 µM (inactive),> 100 µM (inactive),> 100 µM (inactive),> 100 µM (inactive),> 100 µM (inactive),> 100 µM (inactive),> 100 µM (inactive),> 100 µM (inactive),> 100 µM (inactive)
CC12N=NNC1C(=O)NC2=O (centres undefined),> 100 µM,> 100 µM (inactive),> 100 µM (inactive),> 100 µM (inactive),> 100 µM (inactive),> 100 µM (inactive),> 100 µM (inactive),> 100 µM (inactive),> 100 µM (inactive),> 100 µM (inactive),> 100 µM (inactive),> 100 µM (inactive),> 100 µM (inactive),> 100 µM (inactive),> 100 µM (inactive),> 100 µM (inactive),> 100 µM (inactive)
CC1=C(O)C(=O)C2C(=O)C1C(C)C2c1ccc(Cl)cc1 (centres undefined),> 100 µM,> 100 µM (inactive),> 100 µM (inactive),> 100 µM (inactive),> 100 µM (inactive),> 100 µM (inactive),> 100 µM (inactive),> 100 µM (inactive),> 100 µM (inactive),> 100 µM (inactive),> 100 µM (inactive),> 100 µM (inactive),> 100 µM (inactive),–,> 100 µM (inactive),> 100 µM (inactive),> 100 µM (inactive)
CCOC(=O)NC(=O)c1cn(CCOC(=O)NCCCCCCNC(=O)OCCn2cc(C(=O)NC(=O)OCC)c(=O)[nH]c2=O)c(=O)[nH]c1=O,> 100 µM,> 100 µM (inactive),> 100 µM (inactive),–,–,> 100 µM (inactive),> 100 µM (inactive),> 100 µM (inactive),> 100 µM (inactive),> 100 µM (inactive),> 100 µM (inactive),> 100 µM (inactive),> 100 µM (inactive),> 100 µM (inactive),> 100 µM (inactive),> 100 µM (inactive),> 100 µM (inactive)
Cn1cnc([N+](=O)[O-])c1Sc1nc2ccccc2o1,2.77 µM,23.1 µM (inactive),10.7 µM (inactive),10.5 µM (inactive),5.22 µM (inactive),3.03 µM (inactive),5.81 µM (inactive),15.1 µM (inactive),28.1 µM (inactive),5.78 µM (inactive),12.2 µM (inactive),12.6 µM (inactive),1.51 µM (inactive),5.86 µM (inactive),2.53 µM (inactive),36.8 µM (inactive),13.3 µM (inactive)
COc1cccc2c1C(=O)c1c(O)c3c(c(O)c1C2=O)C[C@@](O)(C(=O)CO)CC3OC1CC(NCCOCC(OC(C)=O)OC(C)=O)C(O)C(C)O1 (some centres undefined),< 0.01 µM,< 0.01 µM (active),0.00598 µM (active),< 0.01 µM (active),< 0.01 µM (active),0.00766 µM (active),< 0.01 µM (active),< 0.01 µM (active),< 0.01 µM (active),< 0.01 µM (active),< 0.01 µM (active),0.00925 µM (active),< 0.01 µM (active),< 0.01 µM (active),< 0.01 µM (active),0.00382 µM (active),< 0.01 µM (active)
Nc1nc2[nH]cnc2c(=O)[nH]1,> 100 µM,> 100 µM (inactive),> 100 µM (inactive),> 100 µM (inactive),> 100 µM (inactive),> 100 µM (inactive),> 100 µM (inactive),> 100 µM (inactive),> 100 µM (inactive),> 100 µM (inactive),> 100 µM (inactive),> 100 µM (inactive),> 100 µM (inactive),> 100 µM (inactive),> 100 µM (inactive),> 100 µM (inactive),> 100 µM (inactive)
CCCCCC/C=C1\CCC(CN2CCOCC2)C1=O (centres undefined),8.67 µM,> 45.1 µM (inactive),10.2 µM (inactive),13.4 µM (inactive),16.9 µM (inactive),3.24 µM (inactive),18.5 µM (inactive),16 µM (inactive),18.7 µM (inactive),16.9 µM (inactive),14.3 µM (inactive),15.5 µM (inactive),2.77 µM (inactive),15.1 µM (inactive),3.07 µM (inactive),18.3 µM (inactive),18.1 µM (inactive)
COc1ccc(/C(Cl)=C(\C=O)c2ccc([N+](=O)[O-])cc2)cc1,5.25 µM,17.7 µM (inactive),3.49 µM (inactive),30.1 µM (inactive),14 µM (inactive),4.1 µM (inactive),18.4 µM (inactive),14.1 µM (inactive),6.98 µM (inactive),23 µM (inactive),18.5 µM (inactive),10.5 µM (inactive),3.08 µM (inactive),10.1 µM (inactive),3.12 µM (inactive),21.5 µM (inactive),13.2 µM (inactive)
O=C1/C(=C/c2ccc(Cl)cc2)CCC1CCN1CCOCC1 (centres undefined),36.3 µM,> 100 µM (inactive),39.8 µM (inactive),> 100 µM (inactive),86.1 µM (inactive),29 µM (inactive),59.3 µM (inactive),> 100 µM (inactive),> 100 µM (inactive),> 100 µM (inactive),68.7 µM (inactive),–,23 µM (inactive),> 100 µM (inactive),25.8 µM (inactive),72.1 µM (inactive),55.5 µM (inactive)
NC1CCC[C@H]1O (some centres undefined),> 100 µM,> 100 µM (inactive),> 100 µM (inactive),> 100 µM (inactive),> 100 µM (inactive),> 100 µM (inactive),> 100 µM (inactive),> 100 µM (inactive),> 100 µM (inactive),> 100 µM (inactive),> 100 µM (inactive),> 100 µM (inactive),> 100 µM (inactive),> 100 µM (inactive),> 100 µM (inactive),> 100 µM (inactive),> 100 µM (inactive)
O=C(CC1Sc2ccccc2NC1=O)Nc1cccc(Cl)c1 (centres undefined),40.6 µM,43.8 µM (inactive),20.3 µM (inactive),41.9 µM (inactive),55.5 µM (inactive),40.4 µM (inactive),27 µM (inactive),26.8 µM (inactive),39 µM (inactive),24 µM (inactive),28.8 µM (inactive),30.4 µM (inactive),35.6 µM (inactive),> 100 µM (inactive),51.8 µM (inactive),–,40.1 µM (inactive)
C=C1C(=O)OC2C[C@H](C)C3CC(=O)C(C)=C3CC12 (some centres undefined),11.2 µM,24.5 µM (inactive),15 µM (inactive),15.8 µM (inactive),13.6 µM (inactive),3.44 µM (inactive),12.1 µM (inactive),2.94 µM (inactive),14.2 µM (inactive),5.28 µM (inactive),11.8 µM (inactive),12.4 µM (inactive),2.33 µM (inactive),13.1 µM (inactive),4.47 µM (inactive),23.4 µM (inactive),15.5 µM (inactive)

# From ChEMBL document CHEMBL1201862, “PubChem BioAssay data set” (2004)
